One may read the IC50 as the concentration needed to halve the response being measured. One may read the AC50 as the concentration at which the activity in the assay is half-maximal.

Structures can show the parent of a compound that is named as a salt. Where two headings read alike, the source gives them in different places.

Data set [1] has as its target human CYP2C19 (Homo sapiens, UniProt P33261). The data set can be described thus: biochemical. To be noted: for AC50: CYP2C19 AC50 (half-maximal activity concentration).
For data set [2], the target named is T1, human CYP2C9 (Homo sapiens, UniProt P11712). Put plainly: biochemical. To be noted: for AC50: CYP2C9 AC50 (half-maximal activity concentration).
T1 sequence (P11712 whole entry): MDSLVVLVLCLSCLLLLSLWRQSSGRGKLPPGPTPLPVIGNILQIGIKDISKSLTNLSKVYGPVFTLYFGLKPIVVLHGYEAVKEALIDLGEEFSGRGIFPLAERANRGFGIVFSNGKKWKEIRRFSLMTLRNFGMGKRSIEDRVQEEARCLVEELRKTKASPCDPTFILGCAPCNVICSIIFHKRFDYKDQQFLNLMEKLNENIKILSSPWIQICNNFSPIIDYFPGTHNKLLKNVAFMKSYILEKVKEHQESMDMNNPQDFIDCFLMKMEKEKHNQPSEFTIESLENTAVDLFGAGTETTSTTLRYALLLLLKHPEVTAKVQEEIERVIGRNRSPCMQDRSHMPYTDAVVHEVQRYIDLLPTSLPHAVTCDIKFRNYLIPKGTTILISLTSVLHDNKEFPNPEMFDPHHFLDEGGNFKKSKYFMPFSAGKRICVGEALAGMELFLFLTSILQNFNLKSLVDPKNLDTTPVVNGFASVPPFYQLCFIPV
Data set [3] addresses Photinus pyralis (firefly) luciferase (Photinus pyralis, UniProt P08659). The data set can be described thus: biochemical. Format: biochemical.
Data set [4] has as its target T2, human CYP1A2 (Homo sapiens, UniProt P05177).
T2 sequence (P05177 1-516): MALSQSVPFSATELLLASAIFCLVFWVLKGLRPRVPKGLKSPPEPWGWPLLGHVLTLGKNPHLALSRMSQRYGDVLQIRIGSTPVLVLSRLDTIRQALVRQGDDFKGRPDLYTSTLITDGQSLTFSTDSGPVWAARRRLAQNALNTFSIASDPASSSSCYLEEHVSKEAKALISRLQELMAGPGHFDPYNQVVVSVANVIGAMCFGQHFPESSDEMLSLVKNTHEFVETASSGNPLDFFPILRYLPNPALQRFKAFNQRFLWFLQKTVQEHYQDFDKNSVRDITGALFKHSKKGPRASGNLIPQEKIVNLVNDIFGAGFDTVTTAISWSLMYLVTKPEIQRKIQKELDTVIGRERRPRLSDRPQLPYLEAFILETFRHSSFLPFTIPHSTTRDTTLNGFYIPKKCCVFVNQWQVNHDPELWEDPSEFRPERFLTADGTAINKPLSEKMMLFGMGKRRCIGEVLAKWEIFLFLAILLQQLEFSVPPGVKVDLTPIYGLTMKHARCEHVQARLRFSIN
Put plainly: biochemical. The note with it: for AC50: CYP1A2 AC50 (half-maximal activity concentration).

Data set [5] addresses human CYP2D6 (Homo sapiens, UniProt P10635). The data set can be described thus: biochemical. To be noted: for AC50: CYP2D6 AC50 (half-maximal activity concentration).
Data set [6] addresses T2, human CYP1A2.
The target in data set [7] is T1, human CYP2C9.
Setting [8] is: CYP2C19 IC50 (half-maximal inhibitory concentration).
Where [9] appears, read: CYP2C9 IC50 (half-maximal inhibitory concentration).
Where [10] appears, read: CYP1A2 IC50 (half-maximal inhibitory concentration).
The mark [11] stands for this setting: CYP2D6 IC50 (half-maximal inhibitory concentration).

human CYP2C19, sequence (P33261 whole entry): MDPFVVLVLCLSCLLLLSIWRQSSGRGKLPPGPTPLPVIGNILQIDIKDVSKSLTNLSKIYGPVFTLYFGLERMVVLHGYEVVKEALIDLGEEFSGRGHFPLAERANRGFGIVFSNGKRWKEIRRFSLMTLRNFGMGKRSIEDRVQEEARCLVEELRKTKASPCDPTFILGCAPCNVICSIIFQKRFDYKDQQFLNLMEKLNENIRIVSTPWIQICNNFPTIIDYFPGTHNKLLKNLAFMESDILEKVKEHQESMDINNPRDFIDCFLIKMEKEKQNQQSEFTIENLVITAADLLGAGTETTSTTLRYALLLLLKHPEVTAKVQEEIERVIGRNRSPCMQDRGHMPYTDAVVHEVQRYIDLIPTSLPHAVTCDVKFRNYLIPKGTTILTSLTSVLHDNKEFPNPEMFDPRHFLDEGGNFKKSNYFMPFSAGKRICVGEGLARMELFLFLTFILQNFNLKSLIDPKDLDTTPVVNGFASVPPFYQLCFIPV
human CYP2D6, sequence (P10635 whole entry): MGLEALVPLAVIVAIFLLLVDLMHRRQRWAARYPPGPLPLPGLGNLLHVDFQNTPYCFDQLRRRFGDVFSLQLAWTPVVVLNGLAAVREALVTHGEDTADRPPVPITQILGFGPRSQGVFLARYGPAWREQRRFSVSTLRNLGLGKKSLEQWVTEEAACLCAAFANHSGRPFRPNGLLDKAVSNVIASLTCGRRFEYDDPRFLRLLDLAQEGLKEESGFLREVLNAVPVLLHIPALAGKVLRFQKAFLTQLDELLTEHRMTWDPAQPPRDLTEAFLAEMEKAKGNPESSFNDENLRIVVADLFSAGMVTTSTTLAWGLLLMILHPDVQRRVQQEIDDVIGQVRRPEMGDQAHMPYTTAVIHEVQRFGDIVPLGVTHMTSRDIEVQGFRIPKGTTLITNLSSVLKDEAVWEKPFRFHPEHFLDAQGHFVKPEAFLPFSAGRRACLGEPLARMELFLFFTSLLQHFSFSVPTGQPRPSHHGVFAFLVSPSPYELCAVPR
Photinus pyralis (firefly) luciferase, sequence (P08659 whole entry): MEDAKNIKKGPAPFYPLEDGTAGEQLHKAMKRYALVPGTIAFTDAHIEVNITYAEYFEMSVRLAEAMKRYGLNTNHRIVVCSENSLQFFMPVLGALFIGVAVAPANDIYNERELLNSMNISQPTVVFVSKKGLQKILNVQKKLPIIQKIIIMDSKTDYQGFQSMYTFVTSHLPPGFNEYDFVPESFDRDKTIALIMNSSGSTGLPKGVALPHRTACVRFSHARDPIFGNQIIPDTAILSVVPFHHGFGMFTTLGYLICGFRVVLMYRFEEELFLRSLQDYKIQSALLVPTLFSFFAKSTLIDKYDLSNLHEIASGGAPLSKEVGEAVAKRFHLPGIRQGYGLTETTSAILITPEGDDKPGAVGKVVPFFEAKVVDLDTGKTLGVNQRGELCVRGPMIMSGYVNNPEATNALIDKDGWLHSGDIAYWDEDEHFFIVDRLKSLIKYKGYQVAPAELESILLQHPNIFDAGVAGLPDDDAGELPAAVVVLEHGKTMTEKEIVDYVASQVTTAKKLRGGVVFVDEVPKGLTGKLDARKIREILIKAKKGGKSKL

As to `CCCCCCCCCCCCCCCC[N+](C)(C)CC` [Ethylhexadecyldimethylammonium bromide], the IC50 in data set [1] turned out to be 89.6 µM; in data set [2], 83.1 ± 5.63 µM; in data set [4], 74.4 ± 9.49 µM; in data set [5], 0.61 ± 0.04 µM. The “Luciferase IC50” value in data set [3] is “Inactive”.

For the compound `CC1=C(C)C(=O)C(CCCCC#CCCCC#CCO)=C(C)C1=O` [Docebenone], the IC50 in data set [1] (CYP2C19 IC50) was found to be 11.4 µM; in data set [2] (CYP2C9 IC50), 5.22 µM; in data set [4] (CYP1A2 IC50) it was 3.27 µM; in data set [5] (CYP2D6 IC50), 25.8 µM. For the same compound, the “Luciferase IC50” value in data set [3] is on record as “Inactive”.

Take `Cc1cc(O)c2ccccc2c1O` [Menadiol]: the IC50 is 13.4 µM in data set [1] (CYP2C19 IC50), 12.2 µM in data set [2] (CYP2C9 IC50), 0.8 µM in data set [4] (CYP1A2 IC50) and 19.3 µM in data set [5] (CYP2D6 IC50). Moreover, the “Luciferase IC50” value in data set [3] was “Inactive”.

Turning to `Nc1ccc2c(c1)CN1C(=O)c3ccccc3C1=N2` [Daniquidone], the IC50 in data set [1] (setting [8]) was 2.8 µM; in data set [2] (setting [9]), 5.05 µM; in data set [3] it was 0.36 µM; in data set [4] (setting [10]) it was 0.67 µM; in data set [5] (setting [11]) it was 4.39 µM.

Turning to `Cc1cccc(Cc2c[nH]cn2)c1C` [Detomidine hydrochloride], the IC50 in data set [1] (CYP2C19 IC50) came out at 1.96 µM; in data set [2] (CYP2C9 IC50), 0.41 µM; in data set [4] (CYP1A2 IC50), 1.15 µM; in data set [5] (CYP2D6 IC50), 2.37 µM. Also, the “Luciferase IC50” value in data set [3] is given as “Inactive”.

For the compound `Nc1ccc(C(=O)N2CC3CC(CN(Cc4ccccc4)C3)C2)cc1` [Ambasilide], the 50% inhibitory concentration (IC50) was 30 µM in data set [1], 22.7 µM in data set [2], 30.9 µM in data set [4] and 20.1 µM in data set [5]. Also, the “Luciferase IC50” value in data set [3] is on record as “Inactive”.

In the case of `CN1C[C@H](C(=O)N[C@]2(C)O[C@@]3(O)[C@@H]4CCCN4C(=O)[C@H](Cc4ccccc4)N3C2=O)C=C2c3cccc4[nH]cc(c34)C[C@H]21` [Ergotamine D-tartrate], the IC50 in data set [1] (setting [8]) is 37.4 µM; in data set [2] (setting [9]), 16.5 µM; in data set [3] it was 42.1 µM; in data set [4] (setting [10]) it was 22.6 µM; in data set [5] (setting [11]), 31.3 µM.

Regarding `CN1CCC(=C2c3ccccc3CCc3sccc32)CC1` [Pizotifen], the AC50 in data set [1] was 8.71 µM; in data set [5] it was 0.96 µM. Further, the results for the IC50 in data set [1] (CYP2C19 IC50) and in data set [5] (CYP2D6 IC50) were 8.71 µM and 0.96 µM, respectively. The “CYP1A2 IC50” value in data set [6] is “Inactive”. Also, the “Luciferase IC50” value in data set [3] is given as “Inactive”. Also, the “CYP2C9 IC50” value in data set [7] is given as “Inactive”.

Regarding `Cl[C@H]1[C@H](Cl)[C@@H](Cl)[C@H](Cl)[C@@H](Cl)[C@H]1Cl` [delta-Hexachlorocyclohexane], the AC50 in data set [1] stood at 2.27 µM; in data set [2] it was 25.6 µM; in data set [4] it was 35.7 µM; in data set [5] it was 48.8 µM. Moreover, the IC50 in data set [1] (setting [8]) was determined as 2.27 µM; in data set [2] (setting [9]) it was 25.6 µM; in data set [4] (setting [10]), 35.7 µM; in data set [5] (setting [11]), 48.8 µM. Besides, the “Luciferase IC50 (half-maximal inhibitory concentration)” value in data set [3] is given as “Inactive”.

In the case of `c1cc2ccc3cccc4ccc(c1)c2c34` [Pyrene], the IC50 in data set [1] (CYP2C19 IC50) was found to be 24.3 µM; in data set [2] (CYP2C9 IC50), 60.5 µM; in data set [4] (CYP1A2 IC50), 0.64 µM; in data set [5] (CYP2D6 IC50), 47.1 µM. Also, the “Luciferase IC50” value in data set [3] is “Inactive”.

For `CN(C)[C@@H](CCOc1cccc2ccccc12)c1ccccc1` [Dapoxetine], the IC50 was 1.21 ± 0.3 µM in data set [1], 16.8 ± 2.32 µM in data set [2], 5.87 ± 1.73 µM in data set [4] and 0.98 ± 0.11 µM in data set [5]. For the same compound, in data set [3], the “Luciferase IC50” value was “Inactive”.

As to `CCOC(=O)CC(SP(=S)(OC)OC)C(=O)OCC` (stereo not drawn) [Malathion], the IC50 was 0.54 µM in data set [1] (CYP2C19 IC50); 1.78 µM in data set [2] (CYP2C9 IC50); 37 µM in data set [3]; 2.12 µM in data set [4] (CYP1A2 IC50); 58.1 µM in data set [5] (CYP2D6 IC50).

Turning to `CN1CCCN(C(c2ccccc2)c2ccc(Cl)cc2)CC1` (stereo not drawn) [Homochlorcyclizine], the IC50 came to 26.3 µM in data set [1] (CYP2C19 IC50) and 0.38 µM in data set [5] (CYP2D6 IC50). Besides, the “CYP1A2 IC50” value in data set [6] was “Inactive”. Further, the “Luciferase IC50” value in data set [3] was “Inactive”. In addition, in data set [7], the “CYP2C9 IC50” value was “Inactive”.

As for `CCOP(=S)(OCC)O/N=C(\C#N)c1ccccc1` [Phoxim], the IC50 in data set [1] (CYP2C19 IC50) is 0.28 µM; in data set [2], 2.04 µM; in data set [4] (CYP1A2 IC50) it was 0.99 µM; in data set [5] it was 22.5 µM. In data set [3], the “Luciferase IC50” value is “Inactive”.

Turning to `Nc1c(Cl)c(Cl)c(Cl)c(Cl)c1Cl` [Pentachloroaniline], the IC50 amounted to 44 µM in data set [1] (CYP2C19 IC50), 51.5 µM in data set [2], 0.85 µM in data set [4] (CYP1A2 IC50) and 75.3 µM in data set [5]. Also, the “Luciferase IC50” value in data set [3] is “Inactive”.

Regarding `O=c1cc(-c2ccccc2)oc2ccccc12` [Flavone], the IC50 in data set [1] amounted to 23.2 ± 7.47 µM; in data set [2], 14.6 µM; in data set [3] it was 21.6 µM; in data set [4] it was 0.26 µM; in data set [5], 62.5 ± 38.1 µM.

With `COc1nn(CSP(=S)(OC)OC)c(=O)s1` [Methidathion], the IC50 in data set [1] (CYP2C19 IC50) is 0.8 µM; in data set [2], 6.58 µM; in data set [3], 44 µM; in data set [4] (CYP1A2 IC50), 6.58 µM; in data set [5], 35.7 µM.

`CN(C)c1ccc(N=NS(=O)(=O)O)cc1` [Fenaminosulf]: the IC50 was determined as 1.36 µM in data set [1]; 7.38 µM in data set [2]; 44.1 µM in data set [3]; 5.75 µM in data set [4]; 12.2 µM in data set [5].

Regarding `COP(=S)(OC)Oc1ccc(SC)c(C)c1` [Fenthion], the IC50 in data set [1] (CYP2C19 IC50) was 0.91 µM; in data set [2], 6.1 µM; in data set [3] it was 44.8 µM; in data set [4] (CYP1A2 IC50), 2.53 µM; in data set [5] it was 37.2 µM.

As for `CCCN1C[C@H](CSC)C[C@@H]2c3cccc4[nH]cc(c34)C[C@H]21` [Pergolide methanesulfonate], the IC50 in data set [1] (CYP2C19 IC50) was determined as 8.43 µM; in data set [2] (CYP2C9 IC50), 6.26 µM; in data set [4] (CYP1A2 IC50), 6.54 µM; in data set [5] (CYP2D6 IC50), 0.15 µM. Also, the “Luciferase IC50” value in data set [3] was “Inactive”.

With `CC(CC1c2ccccc2CCc2ccccc21)CN(C)C` (stereo not drawn) [Butriptyline], the figures for the IC50 in data set [1] (CYP2C19 IC50), in data set [3] and in data set [5] (CYP2D6 IC50) were 8.39 µM, 8.71 µM and 0.97 µM, respectively. For the same compound, the “CYP1A2 IC50” value in data set [6] is listed as “Inactive”. The “CYP2C9 IC50” value in data set [7] is on record as “Inactive”.

`[O-][n+]1ccccc1SSc1cccc[n+]1[O-]` [Dipyrithione]: the AC50 in data set [1] stood at 0.79 µM; in data set [2] it was 1.72 µM; in data set [4] it was 3.2 µM; in data set [5] it was 1.66 µM. Besides, the IC50 in data set [1] (CYP2C19 IC50) amounted to 0.79 µM; in data set [2] (CYP2C9 IC50), 1.72 µM; in data set [3] it was 0.45 µM; in data set [4] (CYP1A2 IC50), 3.2 µM; in data set [5] (CYP2D6 IC50), 1.66 µM.

On to `CCC1(c2cnc[nH]2)Cc2ccccc2C1` [Atipamezole], for which the IC50 was determined as 1.42 ± 0.4 µM in data set [1], 1.21 ± 0.3 µM in data set [2], 11 ± 2.84 µM in data set [4] and 0.87 ± 0.1 µM in data set [5]. In addition, in data set [3], the “Luciferase IC50” value is recorded as “Inactive”.

Turning to `c1ccc2c(c1)Nc1ccccc1S2` [Phenothiazine], the IC50 was 4.3 µM in data set [1] (setting [8]); 40.4 µM in data set [2] (setting [9]); 58.1 µM in data set [3]; 0.97 µM in data set [4] (setting [10]); 30.8 µM in data set [5] (setting [11]).

Take `O=C(NCCc1c[nH]c2ccccc12)c1cccnc1` [Nicotredole]: the 50% inhibitory concentration (IC50) is 8.39 µM in data set [1] (setting [8]); 15.1 µM in data set [2] (setting [9]); 35.1 µM in data set [3]; 14.6 µM in data set [4] (setting [10]); 31 µM in data set [5] (setting [11]).

The values above are taken from publication PMC12155096 (International Journal of Molecular Sciences, 2025).
